Entries after “also recorded” stand apart in the source; their conditions may differ.
Columns and labels:
[1] = tested on: HPV-specific T cell lines; test: IFN-γ production by HPV-specific T cell lines stimulated with Ad5-infected human dendritic cells; assay type: cell-based
Experimental: Human DC (6 day culture in IL-4 and GM-CSF) were infected with Ad5 [E1,E2b]-HPV vector and Ad5 [E1,E2b]-Null at 1×10^5/well (24-well plate) in 0.5 ml of AIM-V. Ad5 vectors were used at 20,000 MOI for 1 hour and then 1.5 ml of AIM-V were added to each well. Infected DCs were incubated for 48 hours and then washed and used for stimulation of human antigen-specific T cells. Results are expressed in pg of IFN-γ per 5×10^5 T cells/ml. DC only=<0.73 pg/ml.

[2] = tested on: CaSki cervical carcinoma cell line (HPV16 E6 and E7 positive HLA-A2 positive); test: Lysis of CaSki tumor cells by peptide-specific CTLs; assay type: cell-based, human; set-up: key to Lysis: + denotes a greater level than the native epitope; = denotes the same level as the native epitope; − denotes a lower level than the native epitope; settings: for % specific lysis (SD), CaSki (HLA-A2+ HPV E6+ and E7+): CTLs at IVS5, effector-to-target ratio 25:1; for Lysis: level compared with the native epitope
Description: (§1) HPV-specific T cells were generated using infection of dendritic cells (DCs) with Ad-HPV followed by stimulation of the T cells with each agonist and native peptide. In particular, DCs were infected with Ad5 HPV at 20,000 MOI. Infected DCs were used to generate specific CTLs using autologous PBMC. Autologous DCs were used as APCs for three in vitro stimulations (IVS). Autologous peptide-pulsed B cells were used to re-stimulate antigen-specific CTLs for two additional IVS. CTLs were used at IVS5.
(§2) Results are expressed in % specific lysis (SD). Effector-to-target ratio used was 25:1. CTLs were established from a normal HLA-A2 donor. CaSki is a cervical carcinoma cell line (HPV16 E6 and E7 positive HLA-A2 positive). ASPC-1 is a pancreatic cancer cell line (HPV16 E6 and E7 negative HLA-A2 negative).

[3] = tested on: ASPC-1 pancreatic cancer cell line (HPV16 E6 and E7 negative HLA-A2 negative); test: Lysis of ASPC-1 control cells by peptide-specific CTLs; assay type: cell-based, human; settings: CTLs at IVS5, effector-to-target ratio 25:1; for % specific lysis (SD), ASPC-1 (HLA-A2neg HPV E6neg and E7neg): Table 4; for % specific lysis (SD), ASPC-1: Table 5
Description: as §1, §2
as §2, with “HN-4 and HN-12 cells are head and neck squamous” for “CaSki is a cervical”, “lines (HLA-A2” for “line (HPV16 E6 and E7 positive HLA-A2”

[4] = tested on: HN-12 head and neck squamous carcinoma cell line (HLA-A2 positive); test: Lysis of HN-12 cells by peptide-specific CTLs; assay type: cell-based, human; settings: for % specific lysis (SD), HN-12: CTLs at IVS5, effector-to-target ratio 25:1
Description: as §1
as §2, with “HN-4 and HN-12 cells are head and neck squamous” for “CaSki is a cervical”, “lines (HLA-A2” for “line (HPV16 E6 and E7 positive HLA-A2”

[5] = tested on: HN-4 head and neck squamous carcinoma cell line (HLA-A2 positive); test: Lysis of HN-4 cells by peptide-specific CTLs; assay type: cell-based, human; settings: for % specific lysis (SD), HN-4: CTLs at IVS5, effector-to-target ratio 25:1
Description: as §1
as §2, with “HN-4 and HN-12 cells are head and neck squamous” for “CaSki is a cervical”, “lines (HLA-A2” for “line (HPV16 E6 and E7 positive HLA-A2”

[6] = tested on: CTL (T cells); test: IFN-γ production by CTL stimulated by autologous B cells pulsed with corresponding peptide; assay type: cell-based, human; set-up: key to IFN-γ: + denotes a greater level than the native epitope; = denotes the same level as the native epitope; − denotes a lower level than the native epitope; settings: for interferon production (in words): T cells stimulated by peptide-pulsed autologous B cells
Description: Autologous B cells were pulsed with each native and agonist E6 peptides to stimulate production of interferon by T cells.
Autologous B cells were pulsed with each native and agonist E7 peptides to stimulate production of interferon by T cells.

[7] = target: T1, HLA-A2 molecules (Homo sapiens, UniProt P04439, D140Y/D185E/D98H/E176V/E277Q/G131W/G231S/I119V/I121R/I166T/I218V/L300P/L318F/N151K/N90K/P208A/P217A/Q86G/Q94H/R138H/R169H/T345S); test: T2A2 binding of HPV-16 E6/E7 peptides to HLA-A2; set-up: T2A2 Binding: unit not given here; settings: for T2A2 Binding: binding to HLA-A2
T1 construct: endogenous in cells; host or cells: T2A2 cells (T2 cell line expressing HLA-A2; only the column head names it)

[8] = DCs infected with Ad5 [E1,E2b]-HPV (20,000 MOI)
[9] = DCs infected with Ad5 [E1,E2b]-Null (20,000 MOI)
[10] = CTL line stimulated by autologous B cells pulsed with corresponding HPV-16 E7 peptide
[11] = E7 CTL line, autologous B cells with NO peptide
[12] = compared to native counterparts
[13] = level compared with the native epitope

Row | Sequence | IFN-γ [1, 8] | IFN-γ [1, 9] | IFN-γ ([1]; DCs only (uninfected)) | IFN-γ ([1]; No DCs) | % specific lysis (SD), CaSki (HLA-A2+ HPV E6+ and E7+) [2] | % specific lysis (SD), ASPC-1 (HLA-A2neg HPV E6neg and E7neg) [3] | % specific lysis (SD), ASPC-1 [3] | % specific lysis (SD), HN-12 [4] | % specific lysis (SD), HN-4 [5] | IFN-γ [6, 10] [pg/mL] | IFN-γ [6, 11] [pg/mL] | activation of T cells directed against the epitope (in words) ([1]; human DCs infected with Ad-5[E1,E2b^neg]HPV) | lysis of CaSki cervical carcinoma cells (in words) ([2]; compared to T cells generated with the native epitope counterpart) | Lysis [2] | lysis of HN-12 (in words) [4, 12] | lysis of HN-4 (in words) [5, 12] | interferon production (in words) [6] | HLA-A2 binding (in words) [7] | T2A2 Binding [7] | IFN-γ [6, 13]
1 | RTLEDLLMGT [E7-3, reference compound] | 560 pg of IFN-γ per 5×10^5 T cells/ml | 70.8 pg of IFN-γ per 5×10^5 T cells/ml | 4.24 pg of IFN-γ per 5×10^5 T cells/ml | <0.73 pg of IFN-γ per 5×10^5 T cells/ml | 49.6 (8.7) % | 0.5 (0.1) % | 1.1 (0.7) % | 34.6 (3.9) % | 25.8 (3.5) % | 338 | <15.6 |  |  |  |  |  |  |  |  | 
2 | RTLEDLLMGV [E7-A3] | 931 pg of IFN-γ per 5×10^5 T cells/ml | <0.73 pg of IFN-γ per 5×10^5 T cells/ml | <0.73 pg of IFN-γ per 5×10^5 T cells/ml | <0.73 pg of IFN-γ per 5×10^5 T cells/ml | 54.5 (7.3) % | 0.6 (0.1) % | 0.6 (0.7) % | 41.9 (2.9) % | 40.2 (1.8) % | 840 | <15.6 | able to activate | Enhanced lysis | + | more lysis | more lysis | best interferon production | strongest | 1,263 | 
3 | TLHEYMLDL [E7-2, reference compound] |  |  |  |  | 59.2 (5.3) % | 0.1 (1.0) % |  |  |  | 475 | 95.6 |  |  |  |  |  |  |  |  | 
4 | TLHEYMLDV [E7-A2] |  |  |  |  | 41.9 (4.1) % | 0.6 (1.3) % |  |  |  | 95.3 | <15.6 |  |  | − |  |  | low and produced more interferon than the agonist counterpart | strongest; also recorded: good binding | 1,529 | −
5 | YMLDLQPET [E7-1, reference compound] |  |  |  |  | 39.8 (1.7) % | 0.4 (0.3) % |  |  |  | 247 | 155.6 |  |  |  |  |  |  |  | 1,105 | 
6 | YMLDLQPEV [E7-A1] |  |  |  |  | 27.8 (3.6) % | 0.9 (0.6) % |  |  |  | 230 | <15.6 |  |  | − |  |  |  |  | 1,171 | =

From patent US11311613B2, “Development of agonist epitopes of the human papillomavirus” (priority 2016, dated 2022)
